Experimental data as given in patent US3947578A, “Omega-[4-(3"-indolyl)-piperidino]-alkyl-arylketones as nevroleptics” (Roussel Uclaf, priority 1972, dated 1976).
Where a name gives a salt, the structure may show the parent alone. Read-outs that look alike come from different tables or passages of the source.

Key:
[1] = system: mouse; assay: traction test (neuroleptic activity); format: in vivo; details: ip, 25 min, I.P., 25 minutes after intraperitoneal administration, read-out: DE50 Traction Test
Method: a. The traction test which consists of suspending a mouse by his front paws from a metal wire stretched horizontally. […] The test was run 25 minutes after intraperitoneal administration of the test product to determine the DE50 dose at which 50% of the animals effected recovering in less than 5 seconds.

[2] = system: mouse; assay: chimney test (neuroleptic activity); format: in vivo; details: ip, 25 min, I.P., 25 minutes after intraperitoneal administration, read-out: DE50 Chimney Test
Method: (§1) b. The chimney test which consists of placing a mouse in the extreme end of a glass tube 30 cm long and with a diameter adapted to the size of the animal. This tube is straightened vertically in a rapid motion and the animal with its head down mounts normally the length of the tube in less than 30 seconds. The test was effected 25 minutes after intraperitoneal administration of the test compounds to determine the DE50 dose which is the dose at which 50% of the animals effected a mounting in less than 30 seconds.

[3] = system: young rat; assay: cataleptic activity test; format: in vivo; details: ip, I.P., dose provoking catalepsy in 50% of the animals, read-out: DE50 Test of Cataleptic Activity
Description: c. […] The DE50 dose is that dose provoking catalepsy in 50% of the animals after administration of the product.

[4] = system: dogs; assay: anti-emetic activity test vis-a-vis apomorphine hydrochloride; format: in vivo, dog; details: Canis lupus familiaris, ip, read-out: DE50 Test of Anti-emetic Activity
Method: (§2) The neuroleptic activity of the compounds of Examples 1 to 8 were determined in the following 4 tests and the results are reported in Table I:
(§3) d. The anti-emetic activity test which is determined on dogs vis-a-vis a subcutaneous injection of 0.1 mg/kg of apomorphine hydrochloride to determine the DE50 dose which is that dose which reduces 50% of the number of vomitings provoked by the injection of apomorphine hydrochloride.

[5] = acute toxicity (DL50); details: mouse, in vivo, ip; I.P.; mice; mortality recorded 48 hours after administration
Method: The different products were tested for the dose which would kill 50% of mice when administered intraperitoneally (DL50).

[6] = neuroleptic activity, overall (4 tests of Table I); format: in vivo; details: summary of Table I
Method: as §2
a. The traction test which consists of suspending a mouse by his front paws from a metal wire stretched horizontally. In a time less than 5 seconds, the normal animal effected recovering by managing to bring one of the rear paws to the wire. The test was run 25 minutes after intraperitoneal administration of the test product to determine the DE50 dose at which 50% of the animals effected recovering in less than 5 seconds.
as §1
c. The cataleptic activity test using the technique of Boissier et al [Therapie, Vol. 18 (1963), p. 1257-1277] with a young rat having slightly twisted homolaterally paws and noting the intensity of catalepsy. The DE50 dose is that dose provoking catalepsy in 50% of the animals after administration of the product.
as §3

[7] = I.P., dogs, subcutaneous 0.1 mg/kg apomorphine hydrochloride, 50% reduction of vomitings

Compound | ED50 [1] | ED50 [2] | ED50 [3] | ED50 [4, 7] | LD50 at 48 h [5] | neuroleptic activity (in words) [6] | ED50 [4]
O=C(CCCN1CCC(c2c[nH]c3ccccc23)CC1)c1ccc(F)cc1 [Example 1, p-fluoro-ω-[4'-(3"-indolyl)-piperidino]-butyrophenone hydrochloride] | 2.2 mg/kg | 1.6 mg/kg | 8.5 mg/kg | 0.02 mg/kg | 100 mg/kg | very interesting neuroleptic activity | –
Cn1cc(C2CCN(CCCC(=O)c3ccc(F)cc3)CC2)c2ccccc21 [Example 2, p-fluoro-ω-[4'-(1"-methyl-3"-indolyl)-piperidino]-butyrophenone hydrochloride] | 5.2 mg/kg | 4.5 mg/kg | 12 mg/kg | – | 185 mg/kg | – | 0.2 mg/kg
COc1ccc2c(C3CCN(CCCC(=O)c4ccc(F)cc4)CC3)c[nH]c2c1 [Example 3, p-fluoro-ω-[4'-(6"-methoxy-3"-indolyl)-piperidino]-butyrophenone hydrochloride] | 1.2 mg/kg | 0.9 mg/kg | 2 mg/kg | 0.01 mg/kg | 190 mg/kg | very interesting neuroleptic activity | –
COc1ccc2[nH]cc(C3CCN(CCCC(=O)c4ccc(F)cc4)CC3)c2c1 [Example 4, p-fluoro-ω-[4'-(5"-methoxy-3"-indolyl)-piperidino]-butyrophenone hydrochloride] | 1 mg/kg | 0.2 mg/kg | 6 mg/kg | < 0.3 mg/kg | 300 mg/kg | very interesting neuroleptic activity | –
COc1ccc2c(C3CCN(CCCC(=O)c4ccc(F)cc4)CC3)c(C)[nH]c2c1 [Example 5, p-fluoro-ω-[4'-(2"-methyl-6"-methoxy-3"-indolyl)-piperidino]butyrophenone] | 3.8 mg/kg | 0.3 mg/kg | 3.5 mg/kg | 0.0045 mg/kg | 600 mg/kg | very interesting neuroleptic activity | –
O=C(CCCN1CCC(c2c[nH]c3ccccc23)CC1)c1ccc(Br)cc1 [Example 6, p-bromo-ω-[4'-(3"-indolyl)-piperidino]-butyrophenone hydrochloride] | – | – | – | – | 300 mg/kg | – | –
O=C(CCCN1CCC(c2c[nH]c3ccccc23)CC1)c1ccccc1 [Example 7, ω-[4'-(3'-indolyl)-piperidino]-butyrophenone hydrochloride] | 7 mg/kg | 4 mg/kg | 11 mg/kg | 0.06 mg/kg | 300 mg/kg | – | –
O=C(CCN1CCC(c2c[nH]c3ccccc23)CC1)c1ccc(F)cc1 [Example 8, hydrochloride] | 2.5 mg/kg | 2.7 mg/kg | – | – | 600 mg/kg | – | –
